Experiments:
Experiment in all cases: Test B pre-/postemergence
Format in all cases: in vivo
Design in all cases: key: 0 is no effect; 10 is complete control
[1] = tested on: giant foxtail (Setaria faberii)
In short: (§1)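 Seeds were planted and sprayed preemergence, while plants at 2 to 18 cm (1- to 4-leaf stage) were sprayed postemergence at the same time, with test chemical in a non-phytotoxic solvent mixture containing surfactant. After twelve to sixteen days in a greenhouse, injury was rated visually against untreated controls on a 0–10 scale.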

[2] = tested on: broadleaf signalgrass (Brachiaria decumbens)
In short: as §1

[3] = tested on: blackgrass (Alopecurus myosuroides)
In short: as §1

[4] = tested on: wheat (Triticum aestivum)
In short: as §1

wild oat (Avena fatua) = tested on: wild oat (Avena fatua)
In short: as §1

[5] = tested on: momingglory (Ipomoea hederacea)
In short: as §1

[6] = tested on: bedstraw (Galium aparine)
In short: as §1

[7] = tested on: cocklebur (Xanthium strumarium)
In short: as §1

[8] = tested on: velvetleaf (Abutilon theophrasti)
In short: as §1

[9] = tested on: crabgrass (Digitaria sanguinalis)
In short: as §1

[10] = tested on: sugar beet (Beta vulgaris)
In short: as §1

[11] = tested on: pigweed (Amaranthus retroflexus)
In short: as §1

[12] = tested on: purple nutsedge (Cyperus rotundus)
In short: as §1

corn (Zea mays) = tested on: corn (Zea mays)
In short: as §1

Cc1cnc(-c2ccc(C(F)(F)F)cc2)nc1Cn1cc(I)cn1 [Compound 12]
8: B. signalgrass plant response rating ([2]; Rate 125 g/ha, Preemergence) | Plant response rating, B. signalgrass ([2]; Rate 250 g/ha, Preemergence) | Plant response rating, Bedstraw ([6]; Rate 500 g/ha, Preemergence) | Plant response rating, Cocklebur ([7]; Rate 125 g/ha, Postemergence) | Plant response rating, Cocklebur ([7]; Rate 250 g/ha, Postemergence) | Plant response rating, Cocklebur ([7]; Rate 500 g/ha, Postemergence) | Plant response rating, Velvetleaf ([8]; Rate 250 g/ha, Postemergence) | Plant response rating, Velvetleaf ([8]; Rate 500 g/ha, Postemergence) | Plant response rating, Crabgrass ([9]; Rate 250 g/ha, Preemergence) | Plant response rating, Sugarbeets ([10]; Rate 125 g/ha, Postemergence) | Sugarbeets plant response rating ([10]; Rate 125 g/ha, Preemergence) | Plant response rating, Sugarbeets ([10]; Rate 250 g/ha, Postemergence)
0: Wheat plant response rating ([4]; Rate 62 g/ha, Preemergence) | Wheat plant response rating ([4]; Rate 125 g/ha, Preemergence) | Plant response rating, Wheat ([4]; Rate 250 g/ha, Preemergence) | Plant response rating, Wheat ([4]; Rate 500 g/ha, Preemergence) | Cocklebur plant response rating ([7]; Rate 62 g/ha, Preemergence) | Plant response rating, Nutsedge ([12]; Rate 62 g/ha, Postemergence) | Nutsedge plant response rating ([12]; Rate 62 g/ha, Preemergence) | Plant response rating, Nutsedge ([12]; Rate 125 g/ha, Postemergence) | Nutsedge plant response rating ([12]; Rate 125 g/ha, Preemergence) | Plant response rating, Nutsedge ([12]; Rate 250 g/ha, Postemergence) | Plant response rating, Nutsedge ([12]; Rate 250 g/ha, Preemergence) | Plant response rating, Nutsedge ([12]; Rate 500 g/ha, Postemergence) | Plant response rating, Nutsedge ([12]; Rate 500 g/ha, Preemergence) | Corn plant response rating (corn (Zea mays); Rate 62 g/ha, Preemergence) | Corn plant response rating (corn (Zea mays); Rate 125 g/ha, Preemergence) | Plant response rating, Corn (corn (Zea mays); Rate 250 g/ha, Preemergence)
3: Plant response rating, Giant foxtail ([1]; Rate 125 g/ha, Postemergence) | Plant response rating, Giant foxtail ([1]; Rate 250 g/ha, Postemergence) | B. signalgrass plant response rating ([2]; Rate 62 g/ha, Preemergence) | Plant response rating, Blackgrass ([3]; Rate 125 g/ha, Postemergence) | Plant response rating, Wheat ([4]; Rate 62 g/ha, Postemergence) | Plant response rating, Wheat ([4]; Rate 125 g/ha, Postemergence) | Plant response rating, Wheat ([4]; Rate 250 g/ha, Postemergence) | Plant response rating, Wild oats (wild oat (Avena fatua); Rate 62 g/ha, Postemergence) | Plant response rating, Wild oats (wild oat (Avena fatua); Rate 125 g/ha, Postemergence) | Plant response rating, Cocklebur ([7]; Rate 500 g/ha, Preemergence) | Velvetleaf plant response rating ([8]; Rate 62 g/ha, Preemergence) | Plant response rating, Crabgrass ([9]; Rate 125 g/ha, Postemergence) | Plant response rating, Crabgrass ([9]; Rate 250 g/ha, Postemergence) | Plant response rating, Crabgrass ([9]; Rate 500 g/ha, Postemergence) | Plant response rating, Corn (corn (Zea mays); Rate 250 g/ha, Postemergence) | Plant response rating, Corn (corn (Zea mays); Rate 500 g/ha, Postemergence)
7: Giant foxtail plant response rating ([1]; Rate 125 g/ha, Preemergence) | Plant response rating, B. signalgrass ([2]; Rate 250 g/ha, Postemergence) | Plant response rating, B. signalgrass ([2]; Rate 500 g/ha, Postemergence) | Plant response rating, Bedstraw ([6]; Rate 62 g/ha, Postemergence) | Plant response rating, Velvetleaf ([8]; Rate 62 g/ha, Postemergence) | Plant response rating, Velvetleaf ([8]; Rate 125 g/ha, Postemergence) | Plant response rating, Sugarbeets ([10]; Rate 62 g/ha, Postemergence) | Redroot pigweed plant response rating ([11]; Rate 62 g/ha, Preemergence)
4: Plant response rating, Giant foxtail ([1]; Rate 500 g/ha, Postemergence) | Plant response rating, B. signalgrass ([2]; Rate 62 g/ha, Postemergence) | Blackgrass plant response rating ([3]; Rate 125 g/ha, Preemergence) | Plant response rating, Blackgrass ([3]; Rate 250 g/ha, Postemergence) | Plant response rating, Blackgrass ([3]; Rate 500 g/ha, Postemergence) | Plant response rating, Wheat ([4]; Rate 500 g/ha, Postemergence) | Plant response rating, Wild oats (wild oat (Avena fatua); Rate 250 g/ha, Postemergence) | Plant response rating, Wild oats (wild oat (Avena fatua); Rate 250 g/ha, Preemergence) | Plant response rating, Wild oats (wild oat (Avena fatua); Rate 500 g/ha, Preemergence) | Morningglory plant response rating ([5]; Rate 62 g/ha, Preemergence) | Bedstraw plant response rating ([6]; Rate 125 g/ha, Preemergence) | Plant response rating, Bedstraw ([6]; Rate 250 g/ha, Preemergence) | Velvetleaf plant response rating ([8]; Rate 125 g/ha, Preemergence) | Plant response rating, Velvetleaf ([8]; Rate 250 g/ha, Preemergence) | Plant response rating, Velvetleaf ([8]; Rate 500 g/ha, Preemergence) | Crabgrass plant response rating ([9]; Rate 62 g/ha, Preemergence) | Crabgrass plant response rating ([9]; Rate 125 g/ha, Preemergence)
5: Giant foxtail plant response rating ([1]; Rate 62 g/ha, Preemergence) | Plant response rating, B. signalgrass ([2]; Rate 125 g/ha, Postemergence) | Plant response rating, Wild oats (wild oat (Avena fatua); Rate 500 g/ha, Postemergence)
2: Plant response rating, Giant foxtail ([1]; Rate 62 g/ha, Postemergence) | Plant response rating, Blackgrass ([3]; Rate 62 g/ha, Postemergence) | Wild oats plant response rating (wild oat (Avena fatua); Rate 125 g/ha, Preemergence) | Bedstraw plant response rating ([6]; Rate 62 g/ha, Preemergence) | Plant response rating, Cocklebur ([7]; Rate 250 g/ha, Preemergence) | Plant response rating, Crabgrass ([9]; Rate 62 g/ha, Postemergence) | Plant response rating, Corn (corn (Zea mays); Rate 62 g/ha, Postemergence) | Plant response rating, Corn (corn (Zea mays); Rate 125 g/ha, Postemergence) | Plant response rating, Corn (corn (Zea mays); Rate 500 g/ha, Preemergence)
9: Plant response rating, Giant foxtail ([1]; Rate 250 g/ha, Preemergence) | Plant response rating, Giant foxtail ([1]; Rate 500 g/ha, Preemergence) | Plant response rating, B. signalgrass ([2]; Rate 500 g/ha, Preemergence) | Plant response rating, Morningglory ([5]; Rate 62 g/ha, Postemergence) | Plant response rating, Morningglory ([5]; Rate 125 g/ha, Postemergence) | Plant response rating, Morningglory ([5]; Rate 250 g/ha, Postemergence) | Plant response rating, Morningglory ([5]; Rate 500 g/ha, Postemergence) | Plant response rating, Bedstraw ([6]; Rate 125 g/ha, Postemergence) | Plant response rating, Sugarbeets ([10]; Rate 500 g/ha, Postemergence) | Plant response rating, Redroot pigweed ([11]; Rate 62 g/ha, Postemergence) | Plant response rating, Redroot pigweed ([11]; Rate 125 g/ha, Postemergence) | Redroot pigweed plant response rating ([11]; Rate 125 g/ha, Preemergence) | Plant response rating, Redroot pigweed ([11]; Rate 250 g/ha, Postemergence) | Plant response rating, Redroot pigweed ([11]; Rate 250 g/ha, Preemergence) | Plant response rating, Redroot pigweed ([11]; Rate 500 g/ha, Postemergence) | Plant response rating, Redroot pigweed ([11]; Rate 500 g/ha, Preemergence)
10: Plant response rating, Morningglory ([5]; Rate 250 g/ha, Preemergence) | Plant response rating, Morningglory ([5]; Rate 500 g/ha, Preemergence) | Plant response rating, Bedstraw ([6]; Rate 250 g/ha, Postemergence) | Plant response rating, Bedstraw ([6]; Rate 500 g/ha, Postemergence) | Plant response rating, Crabgrass ([9]; Rate 500 g/ha, Preemergence) | Plant response rating, Sugarbeets ([10]; Rate 250 g/ha, Preemergence) | Plant response rating, Sugarbeets ([10]; Rate 500 g/ha, Preemergence)
1: Blackgrass plant response rating ([3]; Rate 62 g/ha, Preemergence) | Wild oats plant response rating (wild oat (Avena fatua); Rate 62 g/ha, Preemergence)
6: Plant response rating, Blackgrass ([3]; Rate 250 g/ha, Preemergence) | Plant response rating, Blackgrass ([3]; Rate 500 g/ha, Preemergence) | Morningglory plant response rating ([5]; Rate 125 g/ha, Preemergence) | Sugarbeets plant response rating ([10]; Rate 62 g/ha, Preemergence)
